These compounds were tested against T1, Mineralocorticoid Receptor (MR) (Homo sapiens, UniProt P08235) (assay: Functional assay of mineralocorticoid receptor antagonism (Gal4-MR mammalian two hybrid luciferase reporter, 293T cells)). Details: antagonism of aldosterone (0.4 nM)-induced MR activity.
T1 construct: expressed in transfected cells; host or cells: 293T cells (ATCC)
T1 sequence (P08235 672-984): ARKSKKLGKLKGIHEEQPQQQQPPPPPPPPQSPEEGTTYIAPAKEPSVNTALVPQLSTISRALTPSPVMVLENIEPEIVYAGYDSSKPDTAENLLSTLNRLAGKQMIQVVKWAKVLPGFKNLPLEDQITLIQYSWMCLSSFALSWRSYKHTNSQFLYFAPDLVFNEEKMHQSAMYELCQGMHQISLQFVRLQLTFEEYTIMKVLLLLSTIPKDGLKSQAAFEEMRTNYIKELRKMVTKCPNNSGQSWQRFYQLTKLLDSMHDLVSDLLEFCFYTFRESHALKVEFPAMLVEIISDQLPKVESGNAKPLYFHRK
Type: cell-based
Experimental: The MR antagonist activity of the compounds is determined in a mammalian two hybrid reporter system. The N-terminus of MR (MR-NT, sequence coding amino acid 1-597) is fused to the activation domain of the VP16 gene. The ligand binding domain of MR (MR-LBD, sequence encoding amino acid 672-984) is fused to the DNA binding domain of the yeast Gal4 gene. The MR gene is cloned from a human kidney cDNA library with PCR.
The assay is performed in 384 well plates. Briefly, 293T cells (ATCC) are transfected with expression vectors for Gal-4-MR-LBD and VP16-MR NT, and a luciferase reporter vector containing Gal4 binding sequence (pG5-Luc). Cells are plated in 384 well plates immediately after transfection (approximately 3×10^4 cells/well in 50 μl medium). The medium is supplemented with 3% charcoal-dextran treated fetal bovine serum (Hyclone). Twenty four hours after transfection, compounds prepared in DMSO are transferred to the cells. The cells are then stimulated with 0.4 nM final concentration of aldosterone (Acros) and incubated at 37° C. for another 24 hours before the luciferase activity is assayed with 20 μl of Bright-Glo (Promega) using a luminometer (CLIPR). The expression of luciferase is used as an indicator of aldosterone-induced MR trans-activation. Each compound is tested in duplicates with 12-concentration titration. IC50 values (defined as the concentration of test compound required to antagonize 50% of aldosterone-induced MR activity) are determined from the dose-response curve.

Structure (SMILES) | IC50 [nM]
CC1(C)OC2(CN1C(=O)c1ccccc1)c1ccccc1C=Cc1ccccc12 [SOXS-5] | 100 to 1000
O=C1CCC2(c3ccn(S(=O)(=O)c4ccccc4)c3)OC3(CN12)c1ccccc1C=Cc1ccccc13 (centres unmarked) [FRS-12] | 100 to 1000
COc1ccc(C2=NCC3(O2)c2ccccc2C=Cc2ccccc23)cc1 [OXS-3] | 100 to 1000
O=C1CCC2(c3ccc(Br)cc3)OC3(CN12)c1ccccc1C=Cc1ccccc13 (centres unmarked) [FRS-7] | < 100
C1=Cc2ccccc2C2(CN=C(c3ccccc3)O2)c2ccccc21 [OXS-2] | 100 to 1000
